Source: ChEMBL document CHEMBL5058645, “Data for DCP probe JNJ-6204” (2022)

Legend:
[1] = molecular target: AP2-associated protein kinase 1 (Homo sapiens) (UniProt Q2M2I8); assay: AAK1(h) Kinase panel; conditions: Compound concentration 1.0 uM, tested as the 2H-labelled form
[2] = molecular target: Tyrosine-protein kinase Fer (Homo sapiens) (UniProt P16591); assay: Fer(h) Kinase panel; conditions: Compound concentration 1.0 uM, tested as the 2H-labelled form
[3] = molecular target: Phosphorylase b kinase gamma catalytic chain, testis/liver isoform (Homo sapiens) (UniProt P15735); assay: PhKgamma2(h) Kinase panel; conditions: Compound concentration 1.0 uM, tested as the 2H-labelled form
[4] = molecular target: Serine/threonine-protein kinase MARK2 (Homo sapiens) (UniProt Q7KZI7); assay: PAR-1Balpha(h) Kinase panel; conditions: Compound concentration 1.0 uM, tested as the 2H-labelled form
[5] = molecular target: Serine/threonine-protein kinase SIK3 (Homo sapiens) (UniProt Q9Y2K2); assay: SIK3(h) Kinase panel; conditions: Compound concentration 1.0 uM, tested as the 2H-labelled form
[6] = molecular target: Tribbles homolog 2 (Homo sapiens) (UniProt Q92519); assay: TRB2(h) Kinase panel; conditions: Compound concentration 1.0 uM, tested as the 2H-labelled form
[7] = molecular target: Alpha-2B adrenergic receptor (Homo sapiens) (UniProt P18089); conditions: Compound concentration 10.0 uM, tested as the 2H-labelled form
[8] = molecular target: Tyrosine-protein kinase Lck (Homo sapiens) (UniProt P06239); assay: Lck(h) Kinase panel; conditions: Compound concentration 1.0 uM, tested as the 2H-labelled form
[9] = molecular target: Cyclin-dependent kinase-like 1 (Homo sapiens) (UniProt Q00532); assay: CDKL1(h) Kinase panel; conditions: Compound concentration 1.0 uM, tested as the 2H-labelled form
[10] = molecular target: cAMP-dependent protein kinase catalytic subunit alpha (Homo sapiens) (UniProt P17612); assay: PKA(h) Kinase panel; conditions: Compound concentration 1.0 uM, tested as the 2H-labelled form
[11] = molecular target: Serine/threonine-protein kinase PLK3 (Homo sapiens) (UniProt Q9H4B4); assay: Plk3(h) Kinase panel; conditions: Compound concentration 1.0 uM, tested as the 2H-labelled form
[12] = molecular target: Serine/threonine-protein kinase pim-3 (Homo sapiens) (UniProt Q86V86); assay: Pim-3(h) Kinase panel; conditions: Compound concentration 1.0 uM, tested as the 2H-labelled form
[13] = molecular target: Serine-protein kinase ATM (Homo sapiens) (UniProt Q13315); assay: ATM(h) Kinase panel; conditions: Compound concentration 1.0 uM, tested as the 2H-labelled form
[14] = molecular target: Cytoplasmic tyrosine-protein kinase BMX (Homo sapiens) (UniProt P51813); assay: Bmx(h) Kinase panel; conditions: Compound concentration 1.0 uM, tested as the 2H-labelled form
[15] = molecular target: Myosin light chain kinase (Homo sapiens) (UniProt Q32MK0); assay: MLCK(h) Kinase panel; conditions: Compound concentration 1.0 uM, tested as the 2H-labelled form
[16] = molecular target: Serine/threonine-protein kinase VRK2 (Homo sapiens) (UniProt Q86Y07); assay: VRK2(h) Kinase panel; conditions: Compound concentration 1.0 uM, tested as the 2H-labelled form
[17] = molecular target: Mitogen-activated protein kinase kinase kinase kinase 3 (Homo sapiens) (UniProt Q8IVH8); assay: MAP4K3(h) Kinase panel; conditions: Compound concentration 1.0 uM, tested as the 2H-labelled form
[18] = molecular target: Serine/threonine-protein kinase ATR (Homo sapiens) (UniProt Q13535); assay: ATR/ATRIP(h) Kinase panel; conditions: Compound concentration 1.0 uM, tested as the 2H-labelled form
[19] = molecular target: Cyclin-dependent kinase 17 (Homo sapiens) (UniProt Q00537); assay: CDK17/cyclinY(h) Kinase panel; conditions: Compound concentration 1.0 uM, tested as the 2H-labelled form
[20] = molecular target: Calcium/calmodulin-dependent protein kinase type II subunit alpha (Homo sapiens) (UniProt Q9UQM7); assay: CaMKIIalpha(h) Kinase panel; conditions: Compound concentration 1.0 uM, tested as the 2H-labelled form
[21] = molecular target: Serine/threonine-protein kinase WNK3 (Homo sapiens) (UniProt Q9BYP7); assay: WNK3(h) Kinase panel; conditions: Compound concentration 1.0 uM, tested as the 2H-labelled form
[22] = molecular target: Tyrosine-protein kinase HCK (Homo sapiens) (UniProt P08631); assay: Hck(h) Kinase panel; conditions: Compound concentration 1.0 uM, tested as the 2H-labelled form
[23] = molecular target: Activin receptor type-1B (Homo sapiens) (UniProt P36896); assay: ALK4(h) Kinase panel; conditions: Compound concentration 1.0 uM, tested as the 2H-labelled form
[24] = molecular target: Bone morphogenetic protein receptor type-1B (Homo sapiens) (UniProt O00238); assay: ALK6(h) Kinase panel; conditions: Compound concentration 1.0 uM, tested as the 2H-labelled form
[25] = molecular target: Aurora kinase B (Homo sapiens) (UniProt Q96GD4); assay: Aurora-B(h) Kinase panel; conditions: Compound concentration 1.0 uM, tested as the 2H-labelled form
[26] = molecular target: Cyclin-dependent kinase-like 2 (Homo sapiens) (UniProt Q92772); assay: CDKL2(h) Kinase panel; conditions: Compound concentration 1.0 uM, tested as the 2H-labelled form
[27] = molecular target: LIM domain kinase 1 (Homo sapiens) (UniProt P53667); assay: LIMK1(h) Kinase panel; conditions: Compound concentration 1.0 uM, tested as the 2H-labelled form
[28] = molecular target: Tyrosine-protein kinase ZAP-70 (Homo sapiens) (UniProt P43403); assay: ZAP-70(h) Kinase panel; conditions: Compound concentration 1.0 uM, tested as the 2H-labelled form
[29] = molecular target: Maternal embryonic leucine zipper kinase (Homo sapiens) (UniProt Q14680); assay: MELK(h) Kinase panel; conditions: Compound concentration 1.0 uM, tested as the 2H-labelled form
[30] = molecular target: Serine/threonine-protein kinase 17A (Homo sapiens) (UniProt Q9UEE5); assay: DRAK1(h) Kinase panel; conditions: Compound concentration 1.0 uM, tested as the 2H-labelled form
[31] = molecular target: Aurora kinase C (Homo sapiens) (UniProt Q9UQB9); assay: Aurora-C(h) Kinase panel; conditions: Compound concentration 1.0 uM, tested as the 2H-labelled form
[32] = molecular target: Serine/threonine-protein kinase BRSK2 (Homo sapiens) (UniProt Q8IWQ3); assay: BrSK2(h) Kinase panel; conditions: Compound concentration 1.0 uM, tested as the 2H-labelled form
[33] = molecular target: Casein kinase II subunit alpha' (Homo sapiens) (UniProt P19784); assay: CK2alpha2(h) Kinase panel; conditions: Compound concentration 1.0 uM, tested as the 2H-labelled form
[34] = molecular target: cAMP-dependent protein kinase catalytic subunit PRKX (Homo sapiens) (UniProt P51817); assay: PrKX(h) Kinase panel; conditions: Compound concentration 1.0 uM, tested as the 2H-labelled form
[35] = molecular target: Phosphatidylinositol 4,5-bisphosphate 3-kinase catalytic subunit beta isoform (Homo sapiens) (UniProt P42338); assay: PI3 Kinase (p110b/p85a)(h) Kinase panel; conditions: Compound concentration 1.0 uM, tested as the 2H-labelled form
[36] = molecular target: Phosphatidylinositol 4,5-bisphosphate 3-kinase catalytic subunit alpha isoform (Homo sapiens) (UniProt P42336); assay: PI3 Kinase (p110a/p85a)(h) Kinase panel; conditions: Compound concentration 1.0 uM, tested as the 2H-labelled form
[37] = molecular target: Ephrin type-A receptor 3 (Homo sapiens) (UniProt P29320); assay: EphA3(h) Kinase panel; conditions: Compound concentration 1.0 uM, tested as the 2H-labelled form
[38] = molecular target: Mitogen-activated protein kinase kinase kinase 10 (Homo sapiens) (UniProt Q02779); assay: MLK2(h) Kinase panel; conditions: Compound concentration 1.0 uM, tested as the 2H-labelled form
[39] = molecular target: Serine/threonine-protein kinase 26 (Homo sapiens) (UniProt Q9P289); assay: MST4(h) Kinase panel; conditions: Compound concentration 1.0 uM, tested as the 2H-labelled form
[40] = molecular target: Serine/threonine-protein kinase 3 (Homo sapiens) (UniProt Q13188); assay: MST2(h) Kinase panel; conditions: Compound concentration 1.0 uM, tested as the 2H-labelled form
[41] = molecular target: Serine/threonine-protein kinase ULK1 (Homo sapiens) (UniProt O75385); assay: ULK1(h) Kinase panel; conditions: Compound concentration 1.0 uM, tested as the 2H-labelled form
[42] = molecular target: Homeodomain-interacting protein kinase 2 (Homo sapiens) (UniProt Q9H2X6); assay: HIPK2(h) Kinase panel; conditions: Compound concentration 1.0 uM, tested as the 2H-labelled form
[43] = molecular target: G protein-coupled receptor kinase 3 (Homo sapiens) (UniProt P35626); assay: GRK3(h) Kinase panel; conditions: Compound concentration 1.0 uM, tested as the 2H-labelled form
[44] = molecular target: 5-hydroxytryptamine receptor 1D (Homo sapiens) (UniProt P28221); conditions: Compound concentration 10.0 uM, tested as the 2H-labelled form
[45] = molecular target: Dual specificity tyrosine-phosphorylation-regulated kinase 3 (Homo sapiens) (UniProt O43781); assay: DYRK3(h) Kinase panel; conditions: Compound concentration 1.0 uM, tested as the 2H-labelled form
[46] = molecular target: Calcium/calmodulin-dependent protein kinase type II subunit delta (Homo sapiens) (UniProt Q13557); assay: CaMKIIdelta(h) Kinase panel; conditions: Compound concentration 1.0 uM, tested as the 2H-labelled form
[47] = molecular target: Serine/threonine-protein kinase 32B (Homo sapiens) (UniProt Q9NY57); assay: STK32B(h) Kinase panel; conditions: Compound concentration 1.0 uM, tested as the 2H-labelled form
[48] = molecular target: Proto-oncogene tyrosine-protein kinase Src (Homo sapiens) (UniProt P12931); assay: cSRC(h) Kinase panel; conditions: Compound concentration 1.0 uM, tested as the 2H-labelled form
[49] = molecular target: Tyrosine-protein kinase JAK3 (Homo sapiens) (UniProt P52333); assay: JAK3(h) Kinase panel; conditions: Compound concentration 1.0 uM, tested as the 2H-labelled form
[50] = molecular target: G protein-coupled receptor kinase 6 (Homo sapiens) (UniProt P43250); assay: GRK6(h) Kinase panel; conditions: Compound concentration 1.0 uM, tested as the 2H-labelled form
[51] = molecular target: Protein kinase C epsilon type (Homo sapiens) (UniProt Q02156); assay: PKCepsilon (h) Kinase panel; conditions: Compound concentration 1.0 uM, tested as the 2H-labelled form

Measured: inhibition

Cyclin-dependent kinase-like 2 (Homo sapiens), sequence (Q92772 whole entry, the tested form may be a part): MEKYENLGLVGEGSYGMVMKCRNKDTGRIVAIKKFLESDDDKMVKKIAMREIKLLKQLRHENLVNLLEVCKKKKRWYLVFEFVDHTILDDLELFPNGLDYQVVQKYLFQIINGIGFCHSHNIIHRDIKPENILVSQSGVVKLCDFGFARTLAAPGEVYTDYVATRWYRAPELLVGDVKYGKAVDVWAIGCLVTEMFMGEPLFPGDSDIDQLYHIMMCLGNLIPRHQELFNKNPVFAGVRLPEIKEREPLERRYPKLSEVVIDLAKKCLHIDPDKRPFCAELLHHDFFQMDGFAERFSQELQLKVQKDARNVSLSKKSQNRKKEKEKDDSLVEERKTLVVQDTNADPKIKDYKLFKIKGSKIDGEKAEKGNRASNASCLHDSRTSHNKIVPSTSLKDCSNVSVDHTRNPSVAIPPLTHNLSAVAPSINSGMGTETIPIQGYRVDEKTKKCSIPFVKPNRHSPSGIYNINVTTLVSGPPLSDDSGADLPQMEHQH
Bone morphogenetic protein receptor type-1B (Homo sapiens), sequence (O00238 whole entry): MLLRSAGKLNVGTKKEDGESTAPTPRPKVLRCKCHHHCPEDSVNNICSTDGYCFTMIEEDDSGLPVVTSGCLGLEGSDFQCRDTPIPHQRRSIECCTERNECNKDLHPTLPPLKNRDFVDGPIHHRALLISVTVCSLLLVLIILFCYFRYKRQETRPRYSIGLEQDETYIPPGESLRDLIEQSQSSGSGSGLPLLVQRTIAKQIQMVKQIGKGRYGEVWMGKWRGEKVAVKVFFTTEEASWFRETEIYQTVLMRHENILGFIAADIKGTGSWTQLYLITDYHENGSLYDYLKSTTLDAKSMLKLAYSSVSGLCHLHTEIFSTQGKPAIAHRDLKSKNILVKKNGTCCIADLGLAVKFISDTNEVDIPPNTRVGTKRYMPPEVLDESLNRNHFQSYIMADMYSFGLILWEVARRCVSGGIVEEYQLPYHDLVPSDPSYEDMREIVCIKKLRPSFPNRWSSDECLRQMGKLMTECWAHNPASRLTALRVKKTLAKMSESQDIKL
G protein-coupled receptor kinase 6 (Homo sapiens), sequence (P43250 whole entry, looked up): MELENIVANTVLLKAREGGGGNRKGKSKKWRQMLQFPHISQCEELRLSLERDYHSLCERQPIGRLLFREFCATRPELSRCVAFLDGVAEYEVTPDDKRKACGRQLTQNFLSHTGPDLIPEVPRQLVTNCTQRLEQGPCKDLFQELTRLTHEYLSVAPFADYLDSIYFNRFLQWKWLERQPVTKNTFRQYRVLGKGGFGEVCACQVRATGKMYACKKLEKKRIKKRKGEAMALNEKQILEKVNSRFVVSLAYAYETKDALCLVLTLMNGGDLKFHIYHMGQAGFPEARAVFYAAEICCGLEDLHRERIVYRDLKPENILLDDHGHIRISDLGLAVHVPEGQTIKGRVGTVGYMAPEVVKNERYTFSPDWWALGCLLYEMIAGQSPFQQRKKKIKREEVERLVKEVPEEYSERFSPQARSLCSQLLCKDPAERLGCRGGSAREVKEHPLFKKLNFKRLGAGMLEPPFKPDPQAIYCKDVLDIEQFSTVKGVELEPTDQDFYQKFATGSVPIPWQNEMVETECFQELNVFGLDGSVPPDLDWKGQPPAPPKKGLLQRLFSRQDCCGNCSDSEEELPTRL
Dual specificity tyrosine-phosphorylation-regulated kinase 3 (Homo sapiens), sequence (O43781 whole entry): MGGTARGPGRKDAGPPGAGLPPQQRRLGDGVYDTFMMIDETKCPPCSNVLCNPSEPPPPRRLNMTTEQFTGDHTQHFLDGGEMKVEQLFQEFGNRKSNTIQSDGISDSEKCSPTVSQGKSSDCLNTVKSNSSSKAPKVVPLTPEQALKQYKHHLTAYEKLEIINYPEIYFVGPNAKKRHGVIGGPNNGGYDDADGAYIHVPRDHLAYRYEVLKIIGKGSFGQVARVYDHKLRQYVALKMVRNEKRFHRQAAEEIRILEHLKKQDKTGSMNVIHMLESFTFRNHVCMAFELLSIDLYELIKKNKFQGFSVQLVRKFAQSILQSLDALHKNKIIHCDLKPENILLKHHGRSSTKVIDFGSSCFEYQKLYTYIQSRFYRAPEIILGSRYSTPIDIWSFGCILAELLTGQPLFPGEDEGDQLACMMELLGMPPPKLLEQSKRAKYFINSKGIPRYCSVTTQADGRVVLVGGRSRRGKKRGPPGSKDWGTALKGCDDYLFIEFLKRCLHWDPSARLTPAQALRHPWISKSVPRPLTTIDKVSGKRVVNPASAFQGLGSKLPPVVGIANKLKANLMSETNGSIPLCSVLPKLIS
Phosphatidylinositol 4,5-bisphosphate 3-kinase catalytic subunit alpha isoform (Homo sapiens), sequence (P42336 whole entry, canonical isoform): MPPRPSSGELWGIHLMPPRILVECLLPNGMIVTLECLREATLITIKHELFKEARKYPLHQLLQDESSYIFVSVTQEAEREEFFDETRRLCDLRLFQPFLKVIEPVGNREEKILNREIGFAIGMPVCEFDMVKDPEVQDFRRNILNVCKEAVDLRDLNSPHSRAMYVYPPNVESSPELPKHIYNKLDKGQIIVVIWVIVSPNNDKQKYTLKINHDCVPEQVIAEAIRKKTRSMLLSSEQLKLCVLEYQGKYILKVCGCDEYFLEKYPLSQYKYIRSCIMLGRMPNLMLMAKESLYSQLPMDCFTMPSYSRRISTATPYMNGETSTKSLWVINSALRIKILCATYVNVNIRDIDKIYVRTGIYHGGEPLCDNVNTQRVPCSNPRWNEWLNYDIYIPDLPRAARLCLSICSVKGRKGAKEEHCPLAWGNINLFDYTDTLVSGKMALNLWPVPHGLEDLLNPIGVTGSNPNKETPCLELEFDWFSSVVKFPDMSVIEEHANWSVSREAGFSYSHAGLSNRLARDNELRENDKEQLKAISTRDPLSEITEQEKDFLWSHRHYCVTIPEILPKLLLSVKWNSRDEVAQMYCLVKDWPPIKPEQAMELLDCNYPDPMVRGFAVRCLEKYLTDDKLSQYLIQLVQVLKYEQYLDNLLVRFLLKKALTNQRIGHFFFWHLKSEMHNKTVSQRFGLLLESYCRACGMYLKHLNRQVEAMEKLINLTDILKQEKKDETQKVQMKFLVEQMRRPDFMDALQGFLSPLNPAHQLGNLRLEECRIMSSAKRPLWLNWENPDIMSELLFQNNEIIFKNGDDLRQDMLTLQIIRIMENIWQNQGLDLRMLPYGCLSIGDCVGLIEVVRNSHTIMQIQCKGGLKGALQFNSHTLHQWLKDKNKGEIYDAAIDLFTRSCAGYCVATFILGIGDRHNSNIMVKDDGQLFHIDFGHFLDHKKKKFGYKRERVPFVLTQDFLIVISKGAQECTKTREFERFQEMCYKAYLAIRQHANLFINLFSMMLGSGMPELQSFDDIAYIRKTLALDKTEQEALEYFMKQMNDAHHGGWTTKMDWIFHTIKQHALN
G protein-coupled receptor kinase 3 (Homo sapiens), sequence (P35626 whole entry): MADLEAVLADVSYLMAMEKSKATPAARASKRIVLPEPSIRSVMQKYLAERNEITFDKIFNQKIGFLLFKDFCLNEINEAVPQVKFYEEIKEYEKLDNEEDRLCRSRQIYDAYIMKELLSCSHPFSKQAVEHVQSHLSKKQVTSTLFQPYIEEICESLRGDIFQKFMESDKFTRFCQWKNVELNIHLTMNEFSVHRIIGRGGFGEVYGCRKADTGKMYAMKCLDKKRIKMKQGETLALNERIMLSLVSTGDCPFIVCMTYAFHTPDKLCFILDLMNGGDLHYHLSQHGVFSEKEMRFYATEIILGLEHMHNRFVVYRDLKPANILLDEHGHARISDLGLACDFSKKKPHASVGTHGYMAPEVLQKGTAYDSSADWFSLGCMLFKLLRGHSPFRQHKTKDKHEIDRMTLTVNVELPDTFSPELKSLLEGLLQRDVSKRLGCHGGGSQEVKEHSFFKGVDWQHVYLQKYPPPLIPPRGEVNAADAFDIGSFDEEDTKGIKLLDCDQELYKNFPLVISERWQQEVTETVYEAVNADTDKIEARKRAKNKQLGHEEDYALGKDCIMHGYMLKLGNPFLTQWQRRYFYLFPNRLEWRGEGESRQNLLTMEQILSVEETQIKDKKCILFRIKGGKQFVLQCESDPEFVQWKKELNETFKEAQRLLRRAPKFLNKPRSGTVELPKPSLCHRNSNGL
Serine/threonine-protein kinase PLK3 (Homo sapiens), sequence (Q9H4B4 whole entry, looked up): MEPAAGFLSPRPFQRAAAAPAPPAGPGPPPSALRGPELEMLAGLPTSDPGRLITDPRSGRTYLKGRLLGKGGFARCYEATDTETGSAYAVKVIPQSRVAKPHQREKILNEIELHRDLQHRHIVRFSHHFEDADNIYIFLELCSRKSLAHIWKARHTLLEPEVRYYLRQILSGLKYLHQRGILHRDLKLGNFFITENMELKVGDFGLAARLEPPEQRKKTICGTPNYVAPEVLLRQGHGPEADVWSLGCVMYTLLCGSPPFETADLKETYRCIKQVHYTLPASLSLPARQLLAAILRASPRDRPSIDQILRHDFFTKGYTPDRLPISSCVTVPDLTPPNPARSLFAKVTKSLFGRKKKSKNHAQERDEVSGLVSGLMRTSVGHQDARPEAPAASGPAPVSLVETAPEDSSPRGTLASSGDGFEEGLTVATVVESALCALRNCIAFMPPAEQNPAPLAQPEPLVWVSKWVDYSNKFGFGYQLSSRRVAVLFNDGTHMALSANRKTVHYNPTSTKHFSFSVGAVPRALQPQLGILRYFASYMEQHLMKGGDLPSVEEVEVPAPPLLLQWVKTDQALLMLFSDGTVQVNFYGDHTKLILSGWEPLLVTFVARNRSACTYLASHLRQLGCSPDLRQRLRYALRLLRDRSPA
Serine/threonine-protein kinase 17A (Homo sapiens), sequence (Q9UEE5 whole entry): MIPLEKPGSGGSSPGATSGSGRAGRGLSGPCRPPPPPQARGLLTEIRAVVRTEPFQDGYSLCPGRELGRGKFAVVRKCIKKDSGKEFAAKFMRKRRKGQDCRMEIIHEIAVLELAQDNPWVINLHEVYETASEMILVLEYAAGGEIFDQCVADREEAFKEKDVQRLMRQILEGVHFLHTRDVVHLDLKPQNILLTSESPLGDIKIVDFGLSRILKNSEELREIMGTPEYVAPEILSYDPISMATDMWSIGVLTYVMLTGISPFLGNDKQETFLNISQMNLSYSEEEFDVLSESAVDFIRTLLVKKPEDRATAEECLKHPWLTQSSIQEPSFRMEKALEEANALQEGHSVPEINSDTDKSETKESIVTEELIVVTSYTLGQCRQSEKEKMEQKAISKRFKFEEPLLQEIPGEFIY

CC1(C)Cn2nc(-c3ccc(F)cn3)c(-c3ccnc4[nH]ncc34)c2CO1
inactive: [1] 5% | [2] 20% | [3] -9% | [4] 15% | [5] -1% | [6] -2% | [7] 2.83% | [8] 17% | [9] 11% | [10] 16% | [11] -7% | [12] 4% | [13] 3% | [14] 19% | [15] 19% | [16] 8% | [17] -7% | [18] 16% | [19] 6% | [20] 0% | [21] -2% | [22] 25% | [23] 25% | [24] -5% | [25] -10% | [26] 0% | [27] -9% | [28] 12% | [29] 9% | [30] 14% | [31] 7% | [32] -2% | [33] 4% | [34] 0% | [35] 0% | [36] 2% | [37] -6% | [38] 8% | [39] 6% | [40] 9% | [41] 9% | [42] 21% | [43] 15% | [44] 33.4% | [45] 7% | [46] -6% | [47] 0% | [48] 15% | [49] 0% | [50] -9% | [51] -5%
